Six compounds from patent publication EP4644375A1, “SUBSTITUTED HYDROQUINOLINES FOR THE TREATMENT OF GLIOBLASTOMA MULTIFORME” (Molius Saglik Teknolojileri Anonim Sirketi, priority 2024, dated 2025) can be followed below.

Data set [1] has as its system CMPK2. Nature of the data set: In vivo GBM rat model: immunohistochemical examination. Conditions: tumor cells, brain tissues, GBM rats, 30 mg/kg oral, 5 days. The text has this: (§1) For immunohistochemical examinations, primary antibodies (Ki67 Cat no: ab15580 dilution ratio: 1/100; CMPK2 Cat no: PA5-34461, dilution ratio: 1/100, GFAP Cat no: ab6842 dilution ratio: 1/100) were used. 3-3' Diaminobenzidine (DAB) was used as chromogen. Mayer's hematoxylin was used for counterstaining. Sections were examined under a light microscope (Zeiss AXIO, Germany).
(§2) Individual body weights were manually calculated. Group mean body weights; group mean body weight changes and organ weights were also manually calculated without statistical analysis. To determine the density of positive staining from immunohistochemical and immunofluorescence staining images, five randomly selected areas were evaluated using ZEISS Zen Imaging Software. Data were statistically defined as mean and standard deviation (mean ± SD) for the percentage of the area. One-way ANOVA followed by the Tukey test was performed to compare immunoreactive cells and immune-positive stained areas with healthy controls. GraphPad Prism software was used for analysis.

For data set [2], the system named is Ki67. The description is as above. Conditions: tumor cells, brain tissues, GBM rats, 30 mg/kg oral, 5 days.
From the text: as §1, §2

Data set [3] has as its system GFAP. The data set is described as above. Particulars: brain tissues, GBM rats, 30 mg/kg oral, 5 days.
From the text: as §1, §2

The nature of data set [4]: In vivo GBM rat model: haematology. Particulars: GBM rats, 30 mg/kg oral, 5 days, blood at necropsy. How it is done:
The parameters that were analysed can be seen in Table 11.

Data set [5] concerns GBM xenograft rat model. As to the kind of experiment: In vivo GBM rat model: histopathological examination of brain tissues. Particulars: H&E, GBM rats, 30 mg/kg oral, 5 days. How it is done: An in Vivo study was performed to assess the therapeutic potential of TR-G002, TR-G045, TR-G053, TR-G066, TR-G071 and TR-G091 in the GBM xenograft rat model when administered orally by gavage for five consecutive days. 152 female rats of the Sprague Dawley strain were allocated to the study. Six groups of sixteen females were given dose of 30 mg/kg of the respective target compounds. […] The study design can be seen in Fig. 11 and Table 10.
Female Sprague Dawley rats (age: 6-8 weeks; weight: 255-310 g; ATADEM, Erzurum, Turkey) were utilized in the study. Rats underwent anaesthesia with 5% isoflurane, maintained at 2% isoflurane (1 L/min oxygen), and were positioned in a stereotactic frame for cell implantation (Stoelting Co., IL). […] A burr hole was drilled 1-mm anterior and 3-mm lateral to the right bregma. A microsyringe (Hamilton 1700 series) containing 5×10^4 U87-MG cells suspended in 5 µL of medium at 37 °C was advanced to a depth of 4 mm into the brain. The cells were injected at a rate of 3 µL/ min. Bone wax was used to fill the burr hole to prevent cell suspension reflux. The incision was sutured, and 1 mL of Meloxicam (5 mg/mL; Metacam, Boehringer Ingelheim Vetmedica, Ingelheim, Germany) was administered via a subcutaneous injection.
Fourteen days after inoculation, tumor development in rats was visualized and confirmed through magnetic resonance imaging (MRI). Rats confirmed to have developed tumors were then distributed into six different groups for treatment. […] 9 days after the final treatment dose, the rats underwent another MRI scan and blood and brain samples were taken under anaesthesia.
Brain tissue samples were fixed in a 10% buffered formaldehyde solution. After fixation, the tissues were processed through graded alcohol and xylene series and embedded in paraffin blocks. Sections of 5 µm thickness were taken from the paraffin blocks at intervals of 50-100 µm. Hematoxylin and eosin staining was performed on these sections to evaluate histopathological changes. Histopathological findings included tumor focus size, necrotic area, vascular proliferation, and cellular proliferation patterns. Tumor focus size was categorized as follows based on the diameter measured with a 4X objective on the microscope: >3500 µm was considered very severe, 3499-2000 µm severe, 1999-1000 µm moderate, 999-500 µm mild, and <500 µm very mild. Necrotic area size was classified based on the diameter of necrosis: >1500 µm as very severe, 1499-1000 µm severe, 999-500 µm moderate, 499-200 µm mild, and <199 µm very mild.

With `COc1cc(NC(=O)COc2ccc3c(c2)CCC(=O)N3)cc(OC)c1` [TR-G091, N-(3,5-dimethoxyphenyl)-2-((2-oxo-1,2,3,4-tetrahydroquinolin-6-yl)oxy)acetamide], the “expression of CMPK2” value in data set [1] was “moderate”. The “expression of Ki67” value in data set [2] was “moderate”. Also, the “GFAP expression in astrocytes around the tumor” value (shortened to “GFAP expression”) in data set [3] is “Moderate”. In data set [4], this compound showed an HCT of 43.95%, an HGB of 13.80 g/dL, an MCH of 17.90 pg and an MCHC of 31.40 g/dL. Moreover, in data set [4], the MCV is listed as 56.95 fL, the PLT is on record as 744.50 10^9 /L, the RBC was 7.73 10^12/L and the WBC is reported as 6.56 10^9/L. Further, in data set [5], the “necrosis (grade)” value is reported as “Moderate”; the “tumor focus (description)” value is “extended tumor focus encompassing both grey and white matter”.
Turning to `C=Cc1ccc(COc2ccc3c(c2)CCC(=O)N3)cc1` [TR-G053, 6-((4-vinylbenzyl)oxy)-3,4-dihydroquinolin-2(1H)-one], the “expression of CMPK2” value in data set [1] is reported as “severe”. In data set [2], the “expression of Ki67” value is on record as “severe”. Also, the “GFAP expression” value in data set [3] is recorded as “mild”. In data set [4], this compound displayed an HCT of 48.77%, an HGB of 14.67 g/dL, an MCH of 17.83 pg and an MCHC of 30.07 g/dL. Further, in data set [4], the MCV was determined as 59.33 fL, the PLT is listed as 823.33 10^9 /L, the RBC is given as 8.23 10^12/L and the WBC is recorded as 3.40 10^9/L. Further, in data set [5], the “cellular proliferation / mitosis” value was “intense mitosis around blood vessels”; the “necrosis (grade)” value is “Severe”; the “tumor focus (description)” value is “tumor focus including both grey and white matter”.
Regarding `CC(C)CCOc1ccc2c(c1)CCC(=O)N2` [TR-G002, 6-(isopentyloxy)-3,4-dihydroquinolin-2(1H)-one], the “expression of CMPK2” value in data set [1] is recorded as “mild”. For the same compound, in data set [2], the “expression of Ki67” value was “mild”. In addition, the “GFAP expression” value in data set [3] is listed as “severe”. In data set [4], this compound yielded an HCT of 48.53%, an HGB of 14.88 g/dL, an MCH of 18.43 pg and an MCHC of 30.71 g/dL. For the same compound, in data set [4], the MCV worked out at 59.99 fL, the PLT is 805.75 10^9 /L, the RBC is on record as 8.11 10^12/L and the WBC is 3.65 10^9/L. For the same compound, in data set [5], the “cellular proliferation / mitosis” value is on record as “mild”, the “tumor focus (description)” value is “significantly reduced tumor focus” and the vascular proliferation result is recorded as “mild”.
Consider `O=C1CCc2cc(OS(=O)(=O)c3cccc4ccccc34)ccc2N1` [TR-G045, 2-oxo-1,2,3,4-tetrahydroquinolin-6-yl naphthalene-1-sulfonate], for which the “expression of CMPK2” value in data set [1] was “moderate”. Moreover, in data set [2], the “expression of Ki67” value is given as “moderate”. For the same compound, in data set [3], the “GFAP expression” value is given as “moderate”. In data set [4], this compound yielded an HCT of 47.24%, an HGB of 14.12 g/dL, an MCH of 18.46 pg and an MCHC of 30.54 g/dL. Moreover, in data set [4], the MCV is 60.48 fL, the PLT is listed as 845.60 10^9 /L, the RBC is 8.34 10^12/L and the WBC was 4.32 10^9/L. In data set [5], the “cellular proliferation / mitosis” value is listed as “moderate mitosis”, the “necrotic cells (description)” value was “Necrotic cells were present in the central regions”, the “tumor focus size (grade)” value was “moderate (1999-1000 µm moderate)” and the vascular proliferation result was “vascular proliferation in the vicinity of healthy tissue”.
Consider `O=C(COc1ccc2c(c1)CCC(=O)N2)N/N=C/c1cnc(-c2ccc(Cl)cc2)nc1` [TR-G066, (E)-N'-((2-(4-chlorophenyl)pyrimidin-5-yl)methylene)-2-((2-oxo-1,2,3,4-tetrahydroquinolin-6-yl)oxy)acetohydrazide], for which the “expression of CMPK2” value in data set [1] was “very mild”. The “expression of Ki67” value in data set [2] is “very mild”. For the same compound, in data set [3], the “GFAP expression” value was “very severe”. In data set [4], this compound had an HCT of 46.30%, an HGB of 15.00 g/dL, an MCH of 18.51 pg and an MCHC of 31.11 g/dL. Moreover, in data set [4], the MCV stood at 59.60 fL, the PLT is on record as 799.14 10^9 /L, the RBC is 8.12 10^12/L and the WBC is 4.57 10^9/L. For the same compound, in data set [5], the “tumor focus (description)” value is “few tumor cells, particularly around blood vessels, rather than a distinct tumor focus shape”.
Consider `C=CCOC(=O)COc1ccc2c(c1)CCC(=O)N2` [TR-G071, Allyl 2-((2-oxo-1,2,3,4-tetrahydroquinolin-6-yl)oxy)acetate], for which the “expression of CMPK2” value in data set [1] is “moderate”. Further, the “expression of Ki67” value in data set [2] is listed as “moderate”. The “GFAP expression” value in data set [3] was “moderate”. In data set [4], this compound returned an HCT of 48.15%, an HGB of 14.15 g/dL, an MCH of 17.65 pg and an MCHC of 31.20 g/dL. Besides, in data set [4], the MCV turned out to be 58.65 fL, the PLT is 823.00 10^9 /L, the RBC is listed as 8.56 10^12/L and the WBC was 3.82 10^9/L. In addition, in data set [5], the “cellular proliferation / mitosis” value is given as “moderate levels of mitosis”, the “necrosis (grade)” value is on record as “moderate (999-500 µm moderate)”, the “tumor focus (description)” value is “expanded tumor focus” and the vascular proliferation entry is reported as “moderate”.
